Measurements from patent US10336711B2, “Prolyl hydroxylase inhibitors” (GlaxoSmithKline, LLC, priority 2006, dated 2019).

Tested on: Hep3B cells
Assay: Epo protein produced by Hep3B cell line using ELISA method
Assay type: cell-based
Settings: Homo sapiens, 48 Hours incubation, 100 micromolar the maximum concentration tested
Method: Measure Epo Protein Produced by Hep3B Cell Line Using ELISA Method.
Hep3B cells obtained from the American Type Culture Collection (ATCC) are seeded at 2×10^4 cells/well in Dulbecco's Modified Eagle Medium (DMEM)+10% FBS in 96-well plates. Cells are incubated at 37deg C./5% CO2/90% humidity (standard cell culture incubation conditions). After overnight adherence, medium is removed and replaced with DMEM without serum containing test compound or DMSO negative control. Following 48 Hours incubation, cell culture medium is collected and assayed by ELISA to quantitate Epo protein.

Structure (SMILES)	EC50 [µM]
O=C(O)CCCCCn1c(O)c(C(=O)NCC(=O)O)c(=O)n(C2CCCCC2)c1=O [Example 93, 6-[5-{[(Carboxymethyl)amino]carbonyl}-3-cyclohexyl-6-hydroxy-2,4-dioxo-3,4-dihydro-1(2 H)-pyrimidinyl]hexanoic acid]	> 100
O=C(O)CCCCCn1c(O)c(C(=S)NCC(=O)O)c(=O)n(C2CCCCC2)c1=O [Example 94, 6-[5-{[(Carboxymethyl)amino]carbonothioyl}-3-cyclohexyl-6-hydroxy-2,4-dioxo-3,4-dihydro-1(2 H)-pyrimidinyl]hexanoic acid]	> 100
O=C(O)CNC(=O)c1c(O)n(-c2ccccc2[N+](=O)[O-])c(=O)n(Cc2ccccc2)c1=O [Example 9, N-{[6-Hydroxy-1-(2-nitrophenyl)-2,4-dioxo-3-(phenylmethyl)-1,2,3,4-tetrahydro-5-pyrimidinyl]carbonyl}glycine]	> 100
O=C(O)CNC(=O)c1c(O)n(-c2ccccn2)c(=O)n(Cc2ccccc2)c1=O [Example 8, N-{[6-Hydroxy-2,4-dioxo-3-(phenylmethyl)-1-(2-pyridinyl)-1,2,3,4-tetrahydro-5-pyrimidinyl]carbonyl}glycine]	> 100
CC(C)(C)c1ccc(Cn2c(=O)c(C(=O)NCC(=O)O)c(O)n(-c3ccccc3-c3ccccc3)c2=O)cc1 [Example 31, N-[(1-(2-Biphenylyl)-3-{[4-(1,1-dimethylethyl)phenyl]methyl}-6-hydroxy-2,4-dioxo-1,2,3,4-tetrahydro-5-pyrimidinyl)carbonyl]glycine]	> 100
O=C(O)CNC(=O)c1c(O)n(-c2cccc3ccccc23)c(=O)n(C2CCCCC2)c1=O [Example 88, N-{[3-Cyclohexyl-6-hydroxy-1-(1-naphthalenyl)-2,4-dioxo-1,2,3,4-tetrahydro-5-pyrimidinyl]carbonyl}glycine]	> 100
O=C(O)CNC(=O)c1c(O)n(C2CCCCC2)c(=O)n(CCCN2CCOCC2)c1=O [Example 35, N-({1-Cyclohexyl-6-hydroxy-3-[3-(4-morpholinyl)propyl]-2,4-dioxo-1,2,3,4-tetrahydro-5-pyrimidinyl}carbonyl)glycine]	> 100
CCOC(=O)CNC(=S)c1c(O)n(C2CCCCC2)c(=O)n(C2CCCCC2)c1=O [Example 91, Ethyl N-[(1,3-dicyclohexyl-6-hydroxy-2,4-dioxo-1,2,3,4-tetrahydro-5-pyrimidinyl)carbonothioyl]glycinate]	> 100
CC1(C)CCC(C)(C)c2cc(Cn3c(=O)c(C(=O)NCC(=O)O)c(O)n(C4CCCCC4)c3=O)ccc21 [Example 39, N-({1-Cyclohexyl-6-hydroxy-2,4-dioxo-3-[(5,5,8,8-tetramethyl-5,6,7,8-tetrahydro-2-naphthalenyl)methyl]-1,2,3,4-tetrahydro-5-pyrimidinyl}carbonyl)glycine]	> 100
